Structures are written as SMILES.

What is called IC50 is the concentration that inhibits the measured activity by half.

human Cav2.2, sequence (Q00975 whole entry): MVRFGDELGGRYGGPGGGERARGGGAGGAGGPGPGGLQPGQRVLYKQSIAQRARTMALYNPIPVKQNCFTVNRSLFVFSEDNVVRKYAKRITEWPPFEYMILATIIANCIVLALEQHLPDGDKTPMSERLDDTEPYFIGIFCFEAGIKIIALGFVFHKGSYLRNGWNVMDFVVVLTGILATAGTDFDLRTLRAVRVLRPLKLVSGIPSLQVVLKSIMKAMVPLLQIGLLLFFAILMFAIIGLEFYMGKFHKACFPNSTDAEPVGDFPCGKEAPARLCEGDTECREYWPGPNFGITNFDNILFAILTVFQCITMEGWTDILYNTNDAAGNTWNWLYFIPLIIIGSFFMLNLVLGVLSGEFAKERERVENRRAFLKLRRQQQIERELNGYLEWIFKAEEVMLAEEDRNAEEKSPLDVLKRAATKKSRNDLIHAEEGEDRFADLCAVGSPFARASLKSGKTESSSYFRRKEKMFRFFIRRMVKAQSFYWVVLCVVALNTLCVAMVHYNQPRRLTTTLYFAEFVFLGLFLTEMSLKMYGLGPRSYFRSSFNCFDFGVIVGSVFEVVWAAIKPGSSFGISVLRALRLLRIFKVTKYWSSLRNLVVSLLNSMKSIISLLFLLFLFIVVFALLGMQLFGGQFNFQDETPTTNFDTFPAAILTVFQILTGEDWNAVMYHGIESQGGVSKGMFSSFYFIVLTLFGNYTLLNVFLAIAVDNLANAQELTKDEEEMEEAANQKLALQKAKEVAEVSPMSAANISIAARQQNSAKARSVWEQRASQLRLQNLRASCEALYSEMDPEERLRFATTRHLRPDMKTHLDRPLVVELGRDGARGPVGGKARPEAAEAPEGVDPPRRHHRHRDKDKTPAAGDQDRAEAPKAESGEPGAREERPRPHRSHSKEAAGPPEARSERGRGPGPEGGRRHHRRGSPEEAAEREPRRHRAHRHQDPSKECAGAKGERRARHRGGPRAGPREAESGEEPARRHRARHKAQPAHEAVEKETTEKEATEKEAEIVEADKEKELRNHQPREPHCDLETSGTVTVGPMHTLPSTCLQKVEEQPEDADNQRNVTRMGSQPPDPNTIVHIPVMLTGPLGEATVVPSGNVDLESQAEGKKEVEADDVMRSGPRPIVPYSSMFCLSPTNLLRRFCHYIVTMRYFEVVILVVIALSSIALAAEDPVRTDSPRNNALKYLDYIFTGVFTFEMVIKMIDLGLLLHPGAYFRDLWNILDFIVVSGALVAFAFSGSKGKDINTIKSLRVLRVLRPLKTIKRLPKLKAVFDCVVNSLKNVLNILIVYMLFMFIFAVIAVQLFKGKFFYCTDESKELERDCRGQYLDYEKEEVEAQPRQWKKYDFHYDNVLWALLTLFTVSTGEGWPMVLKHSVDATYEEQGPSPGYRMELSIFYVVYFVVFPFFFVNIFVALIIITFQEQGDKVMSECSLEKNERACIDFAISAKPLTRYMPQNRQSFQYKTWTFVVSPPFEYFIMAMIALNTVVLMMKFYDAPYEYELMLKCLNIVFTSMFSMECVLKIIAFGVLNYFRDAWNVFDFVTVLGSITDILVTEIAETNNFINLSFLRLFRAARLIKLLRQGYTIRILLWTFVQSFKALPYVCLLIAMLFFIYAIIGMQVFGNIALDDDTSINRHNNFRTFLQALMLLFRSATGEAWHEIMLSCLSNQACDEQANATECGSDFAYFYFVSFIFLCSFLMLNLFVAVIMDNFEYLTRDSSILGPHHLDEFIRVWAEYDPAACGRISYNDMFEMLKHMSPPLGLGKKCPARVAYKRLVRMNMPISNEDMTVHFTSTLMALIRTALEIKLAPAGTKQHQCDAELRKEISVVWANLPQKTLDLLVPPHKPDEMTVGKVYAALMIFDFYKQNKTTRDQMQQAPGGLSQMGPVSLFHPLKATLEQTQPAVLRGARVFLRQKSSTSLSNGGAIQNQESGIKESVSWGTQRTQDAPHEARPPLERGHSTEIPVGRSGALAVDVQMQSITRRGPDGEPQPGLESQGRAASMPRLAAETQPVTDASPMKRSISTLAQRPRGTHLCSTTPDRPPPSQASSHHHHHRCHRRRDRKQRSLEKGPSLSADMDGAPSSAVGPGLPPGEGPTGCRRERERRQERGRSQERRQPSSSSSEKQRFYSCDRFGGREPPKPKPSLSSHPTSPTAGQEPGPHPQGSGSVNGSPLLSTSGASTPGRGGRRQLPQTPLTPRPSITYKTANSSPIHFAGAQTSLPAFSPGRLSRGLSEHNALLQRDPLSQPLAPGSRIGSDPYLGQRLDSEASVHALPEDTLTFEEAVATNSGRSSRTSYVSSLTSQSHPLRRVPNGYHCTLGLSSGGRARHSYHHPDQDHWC
human Cav2.2, sequence (P54289 25-946 partner limits assumed): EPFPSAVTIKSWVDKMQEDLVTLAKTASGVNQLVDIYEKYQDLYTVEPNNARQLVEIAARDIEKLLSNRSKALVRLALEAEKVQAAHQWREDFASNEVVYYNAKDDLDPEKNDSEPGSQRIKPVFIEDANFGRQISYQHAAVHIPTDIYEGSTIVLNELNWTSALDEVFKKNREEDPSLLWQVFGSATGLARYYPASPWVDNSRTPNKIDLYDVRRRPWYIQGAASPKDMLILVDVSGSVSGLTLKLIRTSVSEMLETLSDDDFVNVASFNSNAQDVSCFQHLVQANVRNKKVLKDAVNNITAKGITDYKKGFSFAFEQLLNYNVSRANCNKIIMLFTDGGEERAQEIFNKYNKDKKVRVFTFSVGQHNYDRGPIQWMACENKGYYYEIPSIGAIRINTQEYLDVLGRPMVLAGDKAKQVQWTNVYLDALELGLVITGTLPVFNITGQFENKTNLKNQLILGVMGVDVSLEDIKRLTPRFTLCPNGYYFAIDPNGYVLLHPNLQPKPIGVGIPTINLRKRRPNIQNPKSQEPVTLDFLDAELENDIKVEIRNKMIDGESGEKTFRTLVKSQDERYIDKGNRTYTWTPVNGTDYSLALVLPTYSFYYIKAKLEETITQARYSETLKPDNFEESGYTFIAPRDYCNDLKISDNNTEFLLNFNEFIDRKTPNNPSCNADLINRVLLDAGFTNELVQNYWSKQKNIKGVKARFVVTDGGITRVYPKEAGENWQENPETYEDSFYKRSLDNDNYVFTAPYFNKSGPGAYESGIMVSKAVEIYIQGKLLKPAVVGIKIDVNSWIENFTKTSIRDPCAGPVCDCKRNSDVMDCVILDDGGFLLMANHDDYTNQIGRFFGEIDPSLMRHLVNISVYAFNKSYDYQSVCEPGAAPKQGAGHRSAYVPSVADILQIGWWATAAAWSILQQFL
human Cav2.2, sequence (P54289 947-1103 partner limits assumed): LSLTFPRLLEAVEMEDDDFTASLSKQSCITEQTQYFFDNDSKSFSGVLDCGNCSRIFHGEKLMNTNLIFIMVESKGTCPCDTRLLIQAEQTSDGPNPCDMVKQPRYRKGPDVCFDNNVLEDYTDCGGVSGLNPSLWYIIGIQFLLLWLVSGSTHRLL
human Cav2.2, sequence (P54284 whole entry partner): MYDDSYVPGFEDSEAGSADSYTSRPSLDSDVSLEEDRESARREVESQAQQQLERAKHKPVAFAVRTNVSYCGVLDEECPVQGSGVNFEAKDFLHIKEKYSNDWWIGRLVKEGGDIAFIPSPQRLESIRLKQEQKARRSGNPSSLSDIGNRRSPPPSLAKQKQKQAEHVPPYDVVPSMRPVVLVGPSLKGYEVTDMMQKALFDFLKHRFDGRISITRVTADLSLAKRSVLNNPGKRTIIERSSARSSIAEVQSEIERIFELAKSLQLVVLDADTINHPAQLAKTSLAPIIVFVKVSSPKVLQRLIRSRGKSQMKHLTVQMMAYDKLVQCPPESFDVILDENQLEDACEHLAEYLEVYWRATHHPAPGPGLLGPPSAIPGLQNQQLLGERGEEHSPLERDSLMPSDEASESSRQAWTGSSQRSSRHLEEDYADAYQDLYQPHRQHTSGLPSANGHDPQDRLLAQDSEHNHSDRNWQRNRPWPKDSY

In this test the target is human Cav2.2 (Homo sapiens, UniProt Q00975). The experiment in a line: Assessment of calcium channel activity using FLIPR (Ca2+ influx in IMR32 cells). It counts as cell-based. The conditions noted are these: 60 minute pre-incubation with compound, 2 μM nifedipine, depolarized with 80 mM KCl. The procedure, abridged:
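IMR32 neuroblastoma cells seeded at 1-1.2×10^5 cells/well and grown 48 h at 37 °C before FLIPR Ca2+ influx read. Percent inhibition at each concentration vs no-inhibitor activity; IC50 by non-linear sigmoidal dose-response fit.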
As for `CC(C)(C)OC(=O)N1Cc2ccccc2C[C@H]1C(=O)N[C@H]1CC[C@@H]2CN(S(=O)(=O)c3cccc(C(F)(F)F)c3)C[C@@H]21` [Example 275, tert-butyl(3S)-3-{[((3aR,4S,6aS)-2-{[3-(trifluoromethyl)phenyl]sulfonyl}octahydrocyclopenta[c]pyrrol-4-yl)amino]carbonyl}-3,4-dihydroisoquinoline-2(1H)-carboxylate], the IC50 is 0.92 µM. Next, `CC(C)(C)C[C@H](NC(=O)OC(C)(C)C)C(=O)N[C@H]1CC[C@@H]2CN(S(=O)(=O)c3cccc(C(F)(F)F)c3)C[C@@H]21` [Example 276, tert-butyl(S)-4,4-dimethyl-1-oxo-1-((3aR,4S,6aS)-2-(3-(trifluoromethyl)phenylsulfonyl)octahydrocyclopenta[c]pyrrol-4-ylamino)pentan-2-ylcarbamate]: 0.38 µM.

As to `CCCC[C@@H](C(=O)N[C@H]1CC[C@@H]2CN(S(=O)(=O)c3cccc(C(F)(F)F)c3)C[C@@H]21)N(C)C(=O)OC(C)(C)C` [Example 277, tert-butyl methyl((S)-1-oxo-1-((3aR,4S,6aS)-2-(3-(trifluoromethyl)phenylsulfonyl)octahydrocyclopenta[c]pyrrol-4-ylamino)hexan-2-yl)carbamate], the IC50 came to 0.72 µM. In the case of `CCC[C@@H](C(=O)N[C@H]1CC[C@@H]2CN(S(=O)(=O)c3cccc(C(F)(F)F)c3)C[C@@H]21)N(C)C(=O)OC(C)(C)C` [Example 278, tert-butyl methyl((S)-1-oxo-1-((3aR,4S,6aS)-2-(3-(trifluoromethyl)phenylsulfonyl)octahydrocyclopenta[c]pyrrol-4-ylamino)pentan-2-yl)carbamate] it was 0.34 µM. Next, `CC(C)(C)CN[C@@H]1CC[C@H]2CN(S(=O)(=O)c3cccc(C(F)(F)F)c3)C[C@H]21` [Example 281, (3aS,4R,6aR)—N-neopentyl-2-{[3-(trifluoromethyl)phenyl]sulfonyl}octahydrocyclopenta[c]pyrrol-4-amine]: 4.18 µM; `CC(C)(C)CN[C@H]1CC[C@@H]2CN(S(=O)(=O)c3cccc(C(F)(F)F)c3)C[C@@H]21` [Example 282, (3aR,4S,6aS)—N-neopentyl-2-{[3-(trifluoromethyl)phenyl]sulfonyl}octahydrocyclopenta[c]pyrrol-4-amine]: 5.24 µM; `CC(C)N[C@H]1CC[C@@H]2CN(S(=O)(=O)c3ccc(C(F)(F)F)cc3)C[C@@H]21` [Example 283, (3aR,4S,6aS)—N-isopropyl-2-{[4-(trifluoromethyl)phenyl]sulfonyl}octahydrocyclopenta[c]pyrrol-4-amine]: 8.69 µM. Regarding `O=S(=O)(c1cccc(C(F)(F)F)c1)N1C[C@@H]2CC[C@@H](NCc3ccc(F)cc3)[C@@H]2C1` [Example 285, (3aS,4R,6aR)—N-(4-fluorobenzyl)-2-{[3-(trifluoromethyl)phenyl]sulfonyl}octahydrocyclopenta[c]pyrrol-4-amine], the IC50 is 0.48 µM.

`O=S(=O)(c1cccc(C(F)(F)F)c1)N1C[C@H]2CC[C@H](NCc3ccc(F)cc3)[C@H]2C1` [Example 286, (3aR,4S,6aS)—N-(4-fluorobenzyl)-2-{[3-(trifluoromethyl)phenyl]sulfonyl}octahydrocyclopenta[c]pyrrol-4-amine]: the IC50 was found to be 0.38 µM. In the case of `Fc1ccc(CN[C@H]2CC[C@@H]3CN(Cc4cccc(C(F)(F)F)c4)C[C@@H]32)cc1` [Example 287, (3aR,4S,6aS)—N-(4-fluorobenzyl)-2-[3-(trifluoromethyl)benzyl]octahydrocyclopenta[c]pyrrol-4-amine] it was 3.09 µM; in that of `CCN[C@H]1CC[C@@H]2CN(S(=O)(=O)c3ccc(C(F)(F)F)cc3)C[C@@H]21` [Example 288, (3aR,4S,6aS)—N-ethyl-2-{[4-(trifluoromethyl)phenyl]sulfonyl}octahydrocyclopenta[c]pyrrol-4-amine], 10.4 µM; in that of `CCCN[C@H]1CC[C@@H]2CN(S(=O)(=O)c3ccc(C(F)(F)F)cc3)C[C@@H]21` [Example 290, (3aR,4S,6aS)—N-propyl-2-{[4-(trifluoromethyl)phenyl]sulfonyl}octahydrocyclopenta[c]pyrrol-4-amine], 7.8 µM. Next, `CCCN(CCC)[C@H]1CC[C@@H]2CN(S(=O)(=O)c3ccc(C(F)(F)F)cc3)C[C@@H]21` [Example 291, (3aR,4S,6aS)—N,N-dipropyl-2-{[4-(trifluoromethyl)phenyl]sulfonyl}octahydrocyclopenta[c]pyrrol-4-amine]: 4.4 µM; `O=S(=O)(c1ccc(C(F)(F)F)cc1)N1C[C@H]2CC[C@H](NCC3CC3)[C@H]2C1` [Example 292, (3aR,4S,6aS)—N-(cyclopropylmethyl)-2-{[4-(trifluoromethyl)phenyl]sulfonyl}octahydrocyclopenta[c]pyrrol-4-amine]: 3.91 µM; `CCN[C@H]1CC[C@@H]2CN(S(=O)(=O)c3ccc(C(F)(F)F)cc3Cl)C[C@@H]21` [Example 293, (3aR,4S,6aS)-2-{[2-chloro-4-(trifluoromethyl)phenyl]sulfonyl}-N-ethyloctahydrocyclopenta[c]pyrrol-4-amine]: 4.82 µM. Next, `CCN(C(=O)[C@H](CC(C)(C)C)N(C)C(=O)OC(C)(C)C)[C@H]1CC[C@@H]2CN(S(=O)(=O)c3ccc(C(F)(F)F)cc3)C[C@@H]21` [Example 296, tert-butyl(S)-1-(ethyl((3aR,4S,6aS)-2-(4-(trifluoromethyl)phenylsulfonyl)octahydrocyclopenta[c]pyrrol-4-yl)amino)-4,4-dimethyl-1-oxopentan-2-yl(methyl)carbamate]: 2.14 µM. Turning to `CCCN(C(=O)[C@H](CC(C)(C)C)N(C)C(=O)OC(C)(C)C)[C@H]1CC[C@@H]2CN(S(=O)(=O)c3ccc(C(F)(F)F)cc3)C[C@@H]21` [Example 297, tert-butyl(S)-4,4-dimethyl-1-oxo-1-(propyl((3aR,4S,6aS)-2-(4-(trifluoromethyl)phenylsulfonyl)octahydrocyclopenta[c]pyrrol-4-yl)amino)pentan-2-yl(methyl)carbamate], the IC50 was 7.88 µM.

On to `O=[N+]([O-])c1ccccc1S(=O)(=O)N[C@H]1CC[C@@H]2CN(S(=O)(=O)c3ccc(C(F)(F)F)cc3)C[C@@H]21` [Example 299, 2-nitro-N-((3aR,4S,6aS)-2-{[4-(trifluoromethyl)phenyl]sulfonyl}octahydrocyclopenta[c]pyrrol-4-yl)benzenesulfonamide], for which the IC50 stood at 3.68 µM. Next, `CN([C@H]1CC[C@@H]2CN(S(=O)(=O)c3ccc(C(F)(F)F)cc3)C[C@@H]21)S(=O)(=O)c1ccccc1[N+](=O)[O-]` [Example 300, N-methyl-2-nitro-N-((3aR,4S,6aS)-2-{[4-(trifluoromethyl)phenyl]sulfonyl}octahydrocyclopenta[c]pyrrol-4-yl)benzenesulfonamide]: 1.54 µM. Next, `CN(C(=O)OC(C)(C)C)[C@@H](CC(C)(C)C)C(=O)N(C)[C@H]1CC[C@@H]2CN(S(=O)(=O)c3ccc(C(F)(F)F)cc3)C[C@@H]21` [Example 302, tert-butyl(S)-4,4-dimethyl-1-(methyl((3aR,4S,6aS)-2-(4-(trifluoromethyl)phenylsulfonyl)octahydrocyclopenta[c]pyrrol-4-yl)amino)-1-oxopentan-2-yl(methyl)carbamate]: 1.14 µM. In the case of `CC(C)C[C@@H](C(=O)N[C@@H]1CC[C@H]2CN(Cc3cccc(C(F)(F)F)c3)C[C@H]21)N1CCCS1(=O)=O` [Example 303, (2S)-2-(1,1-dioxidoisothiazolidin-2-yl)-4-methyl-N-{(3aS,4R,6aR)-2-[3-(trifluoromethyl)benzyl]octahydrocyclopenta[c]pyrrol-4-yl}pentanamide] it was 3.11 µM; in that of `CC(C)C(C(=O)N[C@@H]1CC[C@H]2CN(Cc3cccc(C(F)(F)F)c3)C[C@H]21)C(C)C` [Example 304, 2-isopropyl-3-methyl-N-{(3aS,4R,6aR)-2-[3-(trifluoromethyl)benzyl]octahydrocyclopenta[c]pyrrol-4-yl}butanamide], 3.78 µM; in that of `CC(C)C(C(=O)N[C@H]1CC[C@@H]2CN(Cc3cccc(C(F)(F)F)c3)C[C@@H]21)C(C)C` [Example 305, 2-isopropyl-3-methyl-N-{(3aR,4S,6aS)-2-[3-(trifluoromethyl)benzyl]octahydrocyclopenta[c]pyrrol-4-yl}butanamide], 3.51 µM. As to `CC(C)C[C@H](NC(=O)OC(C)(C)C)C(=O)N[C@H]1CC[C@@H]2CN(Cc3cccc(C(F)(F)F)c3)C[C@@H]21` [Example 306, tert-butyl(S)-4-methyl-1-oxo-1-((3aR,4S,6aS)-2-(3-(trifluoromethyl)benzyl)octahydrocyclopenta[c]pyrrol-4-ylamino)pentan-2-ylcarbamate], the IC50 was 0.5 µM. As for `CC(C)C[C@@H](C(=O)N[C@H]1CC[C@@H]2CN(Cc3cccc(C(F)(F)F)c3)C[C@@H]21)N(C)C(=O)OC(C)(C)C` [Example 307, tert-butyl methyl((S)-4-methyl-1-oxo-1-((3aR,4S,6aS)-2-(3-(trifluoromethyl)benzyl)octahydrocyclopenta[c]pyrrol-4-ylamino)pentan-2-yl)carbamate], the IC50 worked out at 1.54 µM. For `CC(C)C[C@@H](C(=O)N[C@H]1CC[C@@H]2CN(Cc3ccc(F)cc3)C[C@@H]21)N(C)C(=O)OC(C)(C)C` [Example 309, tert-butyl(S)-1-((3aR,4S,6aS)-2-(4-fluorobenzyl)octahydrocyclopenta[c]pyrrol-4-ylamino)-4-methyl-1-oxopentan-2-yl(methyl)carbamate], the IC50 is 1.74 µM.

Take `CCN(C(=O)OC(C)(C)C)[C@@H](CC(C)C)C(=O)N[C@H]1CC[C@@H]2CN(Cc3cccc(C(F)(F)F)c3)C[C@@H]21` [Example 310, tert-butyl ethyl((S)-4-methyl-1-oxo-1-((3aR,4S,6aS)-2-(3-(trifluoromethyl)benzyl)octahydrocyclopenta[c]pyrrol-4-ylamino)pentan-2-yl)carbamate]: the IC50 was 0.68 µM.

The values above are taken from US8129417B2, “Substituted octahydrocyclopenta[C]pyrrol-4-amines as calcium channel blockers” (Abbott Laboratories, priority 2008, dated 2012).
